Test results taken from US20100212031A1, “Method for improving efficiencies in livestock production” (priority 2002, published 2010).
Several values for one entry are separate records, joined by “and”; a condition that tells them apart may be missing. Equal values may be shown once. Marks after values point to notes of the source that are not given here.

Legend:
[1] = Test 4 / Group 3 feedlot study: body weight growth of steers by leptin (ob) genotype and drug status; type: in vivo, cattle (steers of mixed breed); settings: Drug group; for BW, lbs d 1: 1st measure; for BW, lbs d 1 / BW, lbs d 2 / BW, lbs d 3: before drug; for BW, lbs d 2: 2nd measure; for BW, lbs d 3: 3rd measure; for BW, lbs d 4: 4th measure, after drug
Description: (§1) In test 4, 4172 hd of animals randomized to treatment and pen were housed in 48 pens, such that a study was conducted to assess the effect of ob genotype on fat growth, body weight growth, and carcass parameters; as well as any potential interaction with the beta andrenergic agonist Zilpaterol. […] 7.89 mm in the CT animals, and 7.63 mm in CC animals; with an overall statistical genotype effect of P=0.01. […] 494.6 lbs for CT animals, and 479.5 lbs for the CC animals; with an overall statistical genotype effect of P<0.01. Also importantly, the rate of fat change over time depended on ob genotype (Table 2).
(§2) Three groups of cattle were used to evaluate the effect of leptin genotype on back fat measurements in beef cattle. Originally two groups of cattle were fed and managed with the objective of evaluating the effect of a nutritional treatment on backfat measures and were randomly assigned to dietary treatment. The third experiment was fed and managed with the objective to evaluate 1) the effect the ob gene genotype on carcass parameters, 2) the effect of ob genotype on fat growth in the live animal, and 3) any potential interaction between the beta andrenergic agonist Zilpaterol Hydrochloride and ob genotype. The original experimental design for group 1 & 2 was a randomized complete block design (RCBD) with steers being randomly assigned to block, or experimental pen, dietary treatment was included in the final statistical model detailed below. […] Group 1 was composed of 319 steers and was of mixed breed, and of either European or British descent without any representation of Bos indicus bloodlines. The breeds represented in Group 1 were Hereford, Angus, Charolais, Simmental, and Limousin. The second group included 157 Charolais cross steers. All the cattle entered the finishing period when body weight was approximately 385 kg. Group 3 was composed of 4172 steers of mixed breed, and all cattle within a block were slaughtered on a single day.
Backfat was analyzed with repeated measurements at 1, 55 and 139 days on feed for Group 1, 69, 111, and 120 days on feed for Group 2, and 1, 60, 104, and 129 days on feed for Group 3 using the MIXED procedure of SAS (Wang and Goodewardene, 2004). The following model was used: […]=μ+ρi+αj+λκ+βl+(αβ)jl+(λβ)kl+eijkl. Where Yijkl is the observation for the jth treatment ration or drug status within the ith block at the kth measurement, μ is the overall mean, ρi is the fixed effect of the ith block, aj is the fixed effect of the jth treatment ration, λk is the fixed effect of the kth measurement, βl is the fixed effect for leptin genotype (GENO) and eijkl, is the normally identical and independently distributed error term. The interaction between leptin genotype and diet, (αβ)jl, and time of measurement (λβ)kl, was also tested. A heterogeneous autoregressive-one covariance structure was utilized in analysis of backfat. Least square means and standard errors for body weight and back fat were determined using the ESTIMATE statement in PROC MIXED. The SLICE option was used to estimate least square means of GENO on days of measurements with the DIFF option being used to detect differences. Significance for the main effect of GENO and pairwise comparisons was declared at P<0.05 and trends are noted P<0.10. […] Within each group of cattle retrospective exponential models were fitted to the longitudinal measurements of back fat as described by Brethour (2000). The NLIN procedure of SAS was used to fit the nonlinear exponential function Y=Ae^(kt), where Y=projected backfat, A=the initial backfat, k=rate of increase, and t=time in days.
In test 4, 4172 hd of animals randomized to treatment and pen were housed in 48 pens, such that a study was conducted to assess the effect of ob genotype on fat growth, body weight growth, and carcass parameters; as well as any potential interaction with the beta andrenergic agonist Zilpaterol. […]

[2] = Test 4 / Group 3 feedlot study: backfat by serial ultrasound, steers by leptin (ob) genotype and drug status; type: in vivo, cattle (steers of mixed breed); settings: Drug group; for Backfat, mm d 1: 1st measure (1 days on feed); for Backfat, mm d 1 / Backfat, mm d 2 / Backfat, mm d 3: before drug; for Backfat, mm d 2: 2nd measure (60 days on feed); for Backfat, mm d 3: 3rd measure (104 days on feed); for Backfat, mm d 4: 4th measure (129 days on feed), after drug; for d to 10 mm (days needed to reach target backfat) / d to 12 mm (days needed to reach target backfat) / d to 14 mm (days needed to reach target backfat): from fitted model; for Rate (k, rate of backfat; fitted nonlinear parameter): model Y = 3.88e^kt, animal as experimental unit
Description: as §1, §2
Backfat was measured after 1, 55 and 139 days on feed for Group 1, 69, 111, and 120 days on feed for Group 2, and 1, 60, 104, and 129 days on feed for Group 3 using an Aloka 500V diagnostic ultrasound unit equipped with a 17.2 cm, 3.5 MHz linear array transducer (Overseas Monitor Corporation, Ltd., Richmond, B.C.) following the procedure described by Perkins et al., (1992). Internal calipers of the ultrasounds unit were used to measure back fat. Ultrasound images were recorded on a VHS tale (Panasonic AG-5200; Matsushita Electric of Canada, Mississauga, ON).
Backfat was analyzed with repeated measurements at 1, 55 and 139 days on feed for Group 1, 69, 111, and 120 days on feed for Group 2, and 1, 60, 104, and 129 days on feed for Group 3 using the MIXED procedure of SAS (Wang and Goodewardene, 2004). The following model was used: […]=μ+ρi+αj+λκ+βl+(αβ)jl+(λβ)kl+eijkl. Where Yijkl is the observation for the jth treatment ration or drug status within the ith block at the kth measurement, μ is the overall mean, ρi is the fixed effect of the ith block, aj is the fixed effect of the jth treatment ration, λk is the fixed effect of the kth measurement, βl is the fixed effect for leptin genotype (GENO) and eijkl, is the normally identical and independently distributed error term. The interaction between leptin genotype and diet, (αβ)jl, and time of measurement (λβ)kl, was also tested. A heterogeneous autoregressive-one covariance structure was utilized in analysis of backfat. Least square means and standard errors for body weight and back fat were determined using the ESTIMATE statement in PROC MIXED. The SLICE option was used to estimate least square means of GENO on days of measurements with the DIFF option being used to detect differences. Significance for the main effect of GENO and pairwise comparisons was declared at P<0.05 and trends are noted P<0.10. […]

[3] = administration of exogenous leptin; mice, chickens, pigs and sheep; cited from earlier work

CC(C)N[C@@H]1CCn2c(=O)[nH]c3cccc(c32)[C@H]1O.Cl (racemic) [Drug, Zilpaterol Hydrochloride]
ADG, lbs/d (Average daily live bodyweight gain in pounds) ([1]; CC Genotype): 3.51 lbs/d
BWCH, lbs: Body weight change before and after drug, difference between 3rd and 4th measure ([1]; CC Genotype): 72.1 lbs
BWCH, lbs: Body weight change, difference between 1st and 4th measure ([1]; CC Genotype): 500.5 lbs
BW, lbs d 1 ([1]; CC Genotype): 893.4 lbs
BW, lbs d 2 ([1]; CC Genotype): 1181.1 lbs
BW, lbs d 3 ([1]; CC Genotype): 1325.0 lbs
BW, lbs d 4 ([1]; CC Genotype): 1394.8 lbs
ADG, lbs/d (Average daily live bodyweight gain in pounds) ([1]; CT Genotype): 3.64 lbs/d
BWCH, lbs: Body weight change before and after drug, difference between 3rd and 4th measure ([1]; CT Genotype): 93.8 lbs
BWCH, lbs: Body weight change, difference between 1st and 4th measure ([1]; CT Genotype): 518.9 lbs
BW, lbs d 1 ([1]; CT Genotype): 890.3 lbs
BW, lbs d 2 ([1]; CT Genotype): 1197.3 lbs
BW, lbs d 3 ([1]; CT Genotype): 1317.1 lbs
BW, lbs d 4 ([1]; CT Genotype): 1407.6 lbs
ADG, lbs/d (Average daily live bodyweight gain in pounds) ([1]; TT Genotype): 3.60 lbs/d
BWCH, lbs: Body weight change before and after drug, difference between 3rd and 4th measure ([1]; TT Genotype): 75.8 lbs
BWCH, lbs: Body weight change, difference between 1st and 4th measure ([1]; TT Genotype): 512.4 lbs
BW, lbs d 1 ([1]; TT Genotype): 890.6 lbs
BW, lbs d 2 ([1]; TT Genotype): 1191.9 lbs
BW, lbs d 3 ([1]; TT Genotype): 1330.0 lbs
BW, lbs d 4 ([1]; TT Genotype): 1399.0 lbs
AFG, mm/d (Average Daily fat gain in millimeters) ([2]; CC Genotype): 0.051 mm/d
Fat CH, mm: Backfat change before and after drug, difference between 3rd and 4th measure ([2]; CC Genotype): 1.24 mm
Fat CH, mm: Backfat change, difference between 1st and 4th measure ([2]; CC Genotype): 7.30 mm
Rate, 10-12 ([2]; CC Genotype): 0.0071
Backfat, mm d 1 ([2]; CC Genotype): 3.46 mm
Backfat, mm d 2 ([2]; CC Genotype): 7.44 mm
Backfat, mm d 3 ([2]; CC Genotype): 9.60 mm
Backfat, mm d 4 ([2]; CC Genotype): 10.7 mm
d to 10 mm (days needed to reach target backfat) ([2]; CC Genotype): 144 days
d to 12 mm (days needed to reach target backfat) ([2]; CC Genotype): 170 days
d to 14 mm (days needed to reach target backfat) ([2]; CC Genotype): 192 days
Rate (k, rate of backfat; fitted nonlinear parameter) ([2]; CC Genotype): 0.0069^a
AFG, mm/d (Average Daily fat gain in millimeters) ([2]; CT Genotype): 0.053 mm/d
Fat CH, mm: Backfat change before and after drug, difference between 3rd and 4th measure ([2]; CT Genotype): 1.35 mm
Fat CH, mm: Backfat change, difference between 1st and 4th measure ([2]; CT Genotype): 7.56 mm
Rate, 10-12 ([2]; CT Genotype): 0.0072
Backfat, mm d 1 ([2]; CT Genotype): 3.50 mm
Backfat, mm d 2 ([2]; CT Genotype): 7.74 mm
Backfat, mm d 3 ([2]; CT Genotype): 9.77 mm
Backfat, mm d 4 ([2]; CT Genotype): 11.0 mm
d to 10 mm (days needed to reach target backfat) ([2]; CT Genotype): 135 days
d to 12 mm (days needed to reach target backfat) ([2]; CT Genotype): 160 days
d to 14 mm (days needed to reach target backfat) ([2]; CT Genotype): 182 days
Rate (k, rate of backfat; fitted nonlinear parameter) ([2]; CT Genotype, Hydrochloride): 0.0077^1 and 0.0071^1
AFG, mm/d (Average Daily fat gain in millimeters) ([2]; TT Genotype): 0.054 mm/d
Fat CH, mm: Backfat change before and after drug, difference between 3rd and 4th measure ([2]; TT Genotype): 1.17 mm
Fat CH, mm: Backfat change, difference between 1st and 4th measure ([2]; TT Genotype): 7.71 mm
Rate, 10-12 ([2]; TT Genotype): 0.0073
Backfat, mm d 1 ([2]; TT Genotype): 3.62 mm
Backfat, mm d 2 ([2]; TT Genotype): 7.98 mm
Backfat, mm d 3 ([2]; TT Genotype): 10.26 mm
Backfat, mm d 4 ([2]; TT Genotype): 11.3 mm
d to 10 mm (days needed to reach target backfat) ([2]; TT Genotype): 126 days
d to 12 mm (days needed to reach target backfat) ([2]; TT Genotype): 151 days
d to 14 mm (days needed to reach target backfat) ([2]; TT Genotype): 173 days
Rate (k, rate of backfat; fitted nonlinear parameter) ([2]; TT Genotype): 0.0075^bc

leptin: 16-kDa adipocyte-specific polypeptide encoded by the ob (obese) gene
body mass [3]: dramatically reduces
feed intake [3]: dramatically reduces
